In test [1] the target is T1, Or22a (Drosophila melanogaster, UniProt P81909).
T1 construct: his-tag; made in house; host or cells: baculovirus-infected Sf9 cells
T1 sequence (P81909 1-397): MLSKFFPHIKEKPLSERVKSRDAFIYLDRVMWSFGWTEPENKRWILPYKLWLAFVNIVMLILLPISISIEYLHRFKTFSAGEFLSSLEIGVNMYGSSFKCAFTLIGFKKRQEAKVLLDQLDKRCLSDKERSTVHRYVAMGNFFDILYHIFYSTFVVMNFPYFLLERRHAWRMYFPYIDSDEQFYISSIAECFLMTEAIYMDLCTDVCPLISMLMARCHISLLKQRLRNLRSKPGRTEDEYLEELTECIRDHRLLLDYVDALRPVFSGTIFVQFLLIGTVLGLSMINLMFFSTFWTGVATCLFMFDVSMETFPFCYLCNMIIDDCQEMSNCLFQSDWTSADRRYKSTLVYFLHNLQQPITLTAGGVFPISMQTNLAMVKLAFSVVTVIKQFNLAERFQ
Briefly: GFET sensor, Or22a liposomes. The settings on record: Table 4, GFET. It counts as biochemical. From the text:
The GFETs used in this study were fabricated from a predeposited graphene film on 300 nm SiO2 coated Si substrate from ACS Suppliers, USA. The FETs consist of a channel with dimensions of 100 μm width and […]. The key steps involved in fabricating the GFET on a Si/SiO2 substrate is schematically illustrated in FIG. 12. The source and drain electrodes were defined by photolithography and formed by successive deposition of Cr and Au. Both the drain and source electrodes were then encapsulated using AZ1518 photoresist and a channel with dimensions of 100 μm width and 10 μm length was left open to the environment for gating and functionalisation.
The OR liposomes were functionalised onto the graphene surface via a non-covalent route using PBASE as the molecular linker as shown in FIG. 13. The OR liposomes were diluted at 1:10 ratio with 1×PBS (pH7.4). The cleaned GFETs were immersed in 1 mM PBASE solution in methanol for 1 hour. […]
Electrical sensor measurements of OR liposome functionalised GFETs were carried out using top liquid gate morphology as shown in the schematic in FIG. 15 (a). […] The transfer characteristics of the different graphene FETs (FIG. 15 (b) to (g)) were measured at Vds=1 mV while the liquid gate voltage Vlg was swept from −0.5 V to 1 V with an interval of 20 mV. […]

The target in test [2] is T1, Or22a. As to the kind of experiment: Droplet interface bilayer ion channel recording, Or22a only. Format: biochemical. The conditions noted are these: DIB, 10 μM ligand, holding potential +/−150, +/−100, +/−50 mV. Here is the method:
Bilayers were formed between two droplets formed within a PMMA chamber filled with 1 mg/ml DPhPC in undecane and AR20 silicone oil (1:1 ratio). The first step in this process was to deposit a 50 nl droplet onto the stationary silver electrode positioned at the base of the well; this droplet consisted of an aqueous solution containing 300 mM NaCl, 10 mM HEPES (pH 7.4), containing the odorant receptor proteins in proteoliposomes (at a 1:20 dilution from the proteoliposome preparation), […] The second droplet was mounted onto a second silver electrode which was held in the oil and lipid mixture using a YOU-3 manipulator (Narishige, Japan). […] Once the droplets were in contact a bilayer formed spontaneously within 1 minute (as determined by visual assessment and an increase in the bilayer capacitance as measured with a capacitance voltage protocol using the Pico2 amplifier). Insertion of an active channel was determined by a change in current while clamping the voltage at 50 mV. […]
Currents were recorded with a Pico2 or an eONE-HS amplifier (Tecella, USA and Elements, Italy, respectively) with built-in digitizers, operating in gap-free acquisition mode at a sampling frequency of 20 kHz, and using a 0.8 or 1.5 kHz low pass filter. […]
Data were analysed using ANA (Dr Pusch, Genoa), EDR (Elements, Italy) and WinWCP (Dr Dempster, University of Strathclyde). […]

SMILES strings stand for the structures.

A word on the EC50: it is the concentration giving half of the maximal effect. Higher therefore signals weaker potency.

With `CCCCCC(=O)OC` [methyl hexanoate], on Or22a [1], the “Detection Range” value is given as 10^−12 to 10^−8 M and the EC50 was determined as 0.0121 nM. On Or22a [2], the ion channel activity entry is listed as “No ion channel activity”.

For the origin of these results see US20210255184A1, “Biosensor Device and Methods” (The New Zealand Institute for Plant and Food Research …, priority 2018, published 2021).
